These results are taken from PMC3894558, “Chemical signatures and new drug targets for gametocytocidal drug development” (Scientific Reports, 2014).

Where two headings read alike, the source gives them in different places.

The test system of this assay is P. falciparum 3D7 gametocytes. Kind of assay: alamarBlue gametocyte viability assay, strain 3D7. It counts as cell-based, Plasmodium falciparum. The settings on record: Malaria Box; for Max Resp: DMSO set at 0%, 100 nM epoxomicin set at -100%; for Curve Class / IC50: stages III-V 3D7 gametocytes; for IC50: 11 concentrations, 1:3 dilution.

Consider `COc1ccc(C(O)(CCC(C)C)C(CN2CCOCC2)c2ccc(Cl)cc2)cc1.Cl` (stereo not drawn) [MMV000617], for which the “Max Resp” value is on record as -31%, the “Curve Class” value is reported as -2.4 and the IC50 result is listed as “Inactive”.
For `Cc1ccc(Nc2nc(N)c3ccccc3n2)cc1Cl` [MMV011522], the “Max Resp” value is recorded as -73% and the “Curve Class” value is on record as -2.2. Further, for the setting “read-out: IC50”, the IC50 was found to be 14.8 µM.
As to `COC(=O)c1ccc(Cl)c2c1C1C=CCC1C(c1cccc3ccccc13)N2` (stereo not drawn) [MMV667489], the “Max Resp” value was 1%, the “Curve Class” value turned out to be 4 and the 50% inhibitory concentration (IC50) entry is listed as “Inactive”.
Take `O=C(NCCCN1CCC(N2CCCCC2)CC1)C1=Cc2cc(Br)ccc2OC1` [MMV019995]: the “Max Resp” value was -99% and the “Curve Class” value was -1.1. Moreover, where the note is “read-out: IC50”, the half-maximal inhibitory concentration (IC50) worked out at 5.26 µM.
Regarding `CCOC(=O)c1c(C)n(-c2ccccc2)c2ccc(OC(=O)c3cc(OC)c(OC)c(OC)c3)cc12` [MMV396664], the “Max Resp” value is -4%, the “Curve Class” value was found to be 4 and the IC50 entry is “Inactive”.
With `COc1cc(C(=O)Nc2nc3c(cc4c5c(cccc53)CC4)s2)cc(OC)c1OC` [MMV396665], the “Max Resp” value was -24%, the “Curve Class” value was found to be 4 and the IC50 entry is reported as “Inactive”.
In the same order, the values of `COc1ccc(/C=C2/SC(=Nc3ccccc3)NC2=O)cc1` [MMV665836] are 13%, 4 and “Inactive”.
The like results for `COc1ccc(OC)c(C2C3=C(CC(C)(C)CC3=O)N(c3ccc(Cl)c(Cl)c3)C3=C2C(=O)CC(C)(C)C3)c1` [MMV007208] were, in that order, -28%, 4 and “Inactive”.
Take `CCOc1ccc(Nc2ccnc3cc(Cl)ccc23)cc1` [MMV007285]: the “Max Resp” value was -38% and the “Curve Class” value is recorded as -1.2. Where the note is “read-out: IC50”, the IC50 amounted to 5.26 µM.
The like results for `CCOc1ccc(Nc2c3ccccc3nc3ccccc23)cc1.Cl` [MMV000304] were, in that order, -95%, -2.1 and 16.6 µM.
The like results for `CCN(Cc1ccccc1)C1CCN(Cc2cc(Br)ccc2O)CC1.O=C(O)C(=O)O` [MMV019127] were, in that order, -56%, -1.2 and 0.935 µM.
In the case of `O=C(CSc1ccc2nnc(-c3cccc(F)c3)n2n1)Nc1ccc2c(c1)OCO2` [MMV665918], the “Max Resp” value was -14%, the “Curve Class” value is 4 and the 50% inhibitory concentration (IC50) result is recorded as “Inactive”.
Consider `O=C(Nc1ccc(-c2nc3cc(NC(=O)c4ccc(Cl)cc4)ccc3[nH]2)cc1)c1ccc(Cl)cc1` [MMV006962], for which the “Max Resp” value is -94% and the “Curve Class” value is -2.1. The IC50 (read-out: IC50) is 11.8 µM.
The like results for `CCCCCCn1c(=N)n(CC(O)COc2cccc(C)c2)c2ccccc21.Cl` (stereo not drawn) [MMV000445] were, in that order, -110%, -1.1 and 7.43 µM.
In the case of `CSC1=NC(=Nc2c(C)cccc2C)C2(CCC(C(C)(C)C)CC2)N1c1ccc(Cl)cc1` (stereo not drawn) [MMV666596], the “Max Resp” value is 14%, the “Curve Class” value was determined as 4 and the IC50 result is listed as “Inactive”.
As to `COc1cccc(C=Cc2nc(=O)c3ccccc3o2)c1OC` [MMV666693], the “Max Resp” value was determined as 19%, the “Curve Class” value is on record as 4 and the half-maximal inhibitory concentration (IC50) entry was “Inactive”.
The like results for `O=c1nc(C=Cc2ccc(Cl)cc2)oc2ccccc12` [MMV007977] were, in that order, 25%, 4 and “Inactive”.
In the same order, the values of `COCCn1c(C)nc2ccccc2c1=O` [MMV665904] are -7%, 4 and “Inactive”.
Regarding `OC1CCCCC1C1(NC(=S)Nc2ccccc2)CCCCC1` (stereo not drawn) [MMV665980], the “Max Resp” value is -81% and the “Curve Class” value is on record as -2.1. For the same molecule, the IC50 (read-out: IC50) amounted to 11.8 µM.
With `COc1ccc(CN2CCCC(C(=O)c3ccc(C(F)(F)F)cc3)C2)c(O)c1` (stereo not drawn) [MMV666060], the “Max Resp” value is -45% and the “Curve Class” value is -1.2. Besides, where the note is “read-out: IC50”, the half-inhibitory concentration (IC50) turned out to be 1.05 µM.
Regarding `Cc1ccc(N2C(=O)C3C(C2=O)C2(c4ccccc4)C(=O)C3(c3ccccc3)C(c3ccccc3)=C2c2ccccc2)cc1` (stereo not drawn) [MMV666062], the “Max Resp” value stood at 12%, the “Curve Class” value turned out to be 4 and the 50% inhibitory concentration (IC50) result is listed as “Inactive”.
In the same order, the values of `Cc1ccc(F)cc1NC(=O)c1cc(Cl)ccc1Nc1ccccc1` [MMV007275] are -41%, -2.2 and “Inactive”.
The like results for `CCOc1ccccc1NC(=O)CN1CCN(C(=O)c2ccco2)CC1` [MMV007791] were, in that order, 1%, 4 and “Inactive”.
For the molecule `FC(F)(F)c1cccc(Nc2nc3ccccc3nc2Nc2cccc(C(F)(F)F)c2)c1` [MMV665794], the “Max Resp” value was -98% and the “Curve Class” value was -2.1. The 50% inhibitory concentration (IC50) (read-out: IC50) was 18.7 µM.
`Cc1ccc(S(=O)(=O)c2c(COC(=O)c3cccc(C)c3)c(-c3ccccc3)nn2C)cc1` [MMV665936]: the “Max Resp” value is on record as 5%, the “Curve Class” value amounted to 4 and the concentration for half-maximal inhibition (IC50) entry was “Inactive”.
As to `CCN(CC)CCNc1ncnc2c1[nH]c1ccc(Cl)cc12` [MMV396703], the “Max Resp” value is on record as -81% and the “Curve Class” value is listed as -1.1. Besides, where the note is “read-out: IC50”, the half-maximal inhibitory concentration (IC50) was 3.72 µM.
In the case of `COc1ccccc1C(=O)ON=C(N)Cc1cccc2ccccc12` [MMV666686], the “Max Resp” value is given as -50%, the “Curve Class” value is recorded as -2.2 and the 50% inhibitory concentration (IC50) result is recorded as “Inactive”.
Consider `Cc1ccc(Cn2c(N3CCC(C(=O)NCc4cccs4)CC3)nc3ccccc32)cc1` [MMV007564], for which the “Max Resp” value is listed as -54%, the “Curve Class” value is recorded as -2.2 and the 50% inhibitory concentration (IC50) result is listed as “Inactive”.
The like results for `Cc1ccc(CSCc2ccc(C(=O)NC3CC3)o2)cc1` [MMV007571] were, in that order, 6%, 4 and “Inactive”.
The like results for `COc1cc(SC)ccc1C(=O)N1CCCC(C)C1` (stereo not drawn) [MMV056726] were, in that order, -5%, 4 and “Inactive”.
Consider `OC(Cn1nnc2ccccc21)Cn1c2ccc(Br)cc2c2cc(Br)ccc21` (stereo not drawn) [MMV666025], for which the “Max Resp” value is on record as -60% and the “Curve Class” value is given as -2.2. The half-inhibitory concentration (IC50) (read-out: IC50) was found to be 37.2 µM.
Turning to `COc1cccc(-c2nn(C)c3sc(C(=O)NCCN4CCN(c5ccccc5F)CC4)cc23)c1` [MMV019064], the “Max Resp” value is recorded as -42%, the “Curve Class” value is on record as -2.2 and the half-inhibitory concentration (IC50) result is “Inactive”.
On to `Oc1ccc(Br)cc1CN1CCN(Cc2ccc(Cl)cc2)CC1` [MMV665809], for which the “Max Resp” value is reported as -58% and the “Curve Class” value is listed as -1.2. Besides, under “read-out: IC50”, the 50% inhibitory concentration (IC50) amounted to 3.72 µM.
The like results for `COc1ccc(-c2nonc2NC(=O)c2cccc(Cl)c2)cc1OC` [MMV020660] were, in that order, -67%, -2.2 and 23.5 µM.
In the case of `CCCc1c(C)nc2ccc(Br)cc2c1O` [MMV666095], the “Max Resp” value amounted to 28%, the “Curve Class” value turned out to be 4 and the half-inhibitory concentration (IC50) result is given as “Inactive”.
For `Cl.N=c1n(CCN2CCCCC2)c2ccccc2n1CC(O)c1cccc(Br)c1` (stereo not drawn) [MMV665902], the “Max Resp” value was -99% and the “Curve Class” value is -1.1. Also, the IC50 (read-out: IC50) was found to be 3.72 µM.
Regarding `CC(Oc1ccc(NC(=O)c2cccs2)cc1)C(=O)c1ccc(Cl)cc1` (stereo not drawn) [MMV665886], the “Max Resp” value came to 44% and the “Curve Class” value stood at 2.2. The IC50 (read-out: IC50) is 18.7 µM.
In the same order, the values of `COc1ccccc1NC1=C(N2CCCCC2)C(=O)c2ccccc2C1=O` [MMV085203] are -97%, -2.1 and 7.43 µM.
Regarding `CC(C)(C)CC(C)(C)NCC(O)COc1ccc2c(c1)CCC2.Cl` (stereo not drawn) [MMV665817], the “Max Resp” value was -107% and the “Curve Class” value is given as -2.1. Moreover, the IC50 (read-out: IC50) was 9.35 µM.
In the same order, the values of `COc1ccc(Nc2nc(N/N=C/c3ccc(O)cc3)nc(Nc3ccc([N+](=O)[O-])cc3)n2)cc1` [MMV666689] are -64%, -1.2 and 6.62 µM.
In the same order, the values of `OC(CNCC1CCCO1)Cn1c2ccc(Cl)cc2c2cc(Cl)ccc21` (stereo not drawn) [MMV396736] are -70%, -2.2 and 23.5 µM.
For `CN(C)CCCNc1c2ccccc2nc2ccccc12` [MMV000448], the “Max Resp” value is -105% and the “Curve Class” value is reported as -1.1. Besides, under “read-out: IC50”, the IC50 worked out at 1.87 µM.
Consider `CCOC(=O)c1c(C)n(-c2ccc(Cl)cc2)c2ccc(OC(=O)C=Cc3ccccc3)cc12` [MMV666600], for which the “Max Resp” value is 2%, the “Curve Class” value came to 4 and the IC50 result was “Inactive”.
Consider `COc1ccc(C2c3ccc4ccccc4c3Oc3ncn(CCCN(C)C)c(=N)c32)cc1` (stereo not drawn) [MMV667491], for which the “Max Resp” value is -95% and the “Curve Class” value is listed as -1.1. Moreover, for the setting “read-out: IC50”, the IC50 came out at 2.64 µM.
The like results for `CCC(C)NCC(O)(c1ccc(Cl)cc1)c1ccc(Cl)cc1` (stereo not drawn) [MMV665928] were, in that order, -78%, -2.2 and 5.9 µM.
Consider `CCOc1cc2c(cc1OCC)C(c1cc(Cl)ccc1O)NCC2` (stereo not drawn) [MMV000478], for which the “Max Resp” value is -76% and the “Curve Class” value is -1.2. Also, for the setting “read-out: IC50”, the IC50 came out at 4.18 µM.
Consider `O=C(Nc1cccc(C(F)(F)F)c1)c1cc(Cl)ccc1O` [MMV665807], for which the “Max Resp” value is listed as -84% and the “Curve Class” value is listed as -2.1. For the same molecule, the IC50 (read-out: IC50) was 20.9 µM.
